Test system: 997537-175-T-J1-PDC complex spheroid viability
Test: Anticancer human tumor 997537-175-T-J1-PDC patient-derived colon adenocarcinoma cell line growth inhibition [GQUAD]
Conditions: for IC50: curve of first compound; for viability, T/C: stronger effect = lower value
Procedure, shortened: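 Tumor cells were grown as complex spheroids with HUVEC endothelial cells and mesenchymal stem cells as stroma. G-quadruplex stabilizers were combined with targeted agents over half-log dilutions from near the clinical Cmax, or from 10 microM.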

[1] = second compound 0.0316 µM, first compound 0.0316 µM
[2] = second compound 0.0316 µM, first compound 0.1 µM
[3] = second compound 0.0316 µM, first compound 0.316 µM
[4] = second compound 0.0316 µM, first compound 1 µM
[5] = second compound 0.0316 µM, first compound 3.16 µM
[6] = second compound 0.0316 µM, first compound 10 µM
[7] = second compound 0.1 µM, first compound 0.0316 µM
[8] = second compound 0.1 µM, first compound 0.1 µM
[9] = second compound 0.1 µM, first compound 0.316 µM
[10] = second compound 0.1 µM, first compound 1 µM
[11] = second compound 0.1 µM, first compound 3.16 µM
[12] = second compound 0.1 µM, first compound 10 µM
[13] = second compound 0.316 µM, first compound 0.0316 µM
[14] = second compound 0.316 µM, first compound 0.1 µM
[15] = second compound 0.316 µM, first compound 0.316 µM
[16] = second compound 0.316 µM, first compound 1 µM
[17] = second compound 0.316 µM, first compound 3.16 µM
[18] = second compound 0.316 µM, first compound 10 µM
[19] = second compound 1 µM, first compound 0.0316 µM
[20] = second compound 1 µM, first compound 0.1 µM
[21] = second compound 1 µM, first compound 0.316 µM
[22] = second compound 1 µM, first compound 1 µM
[23] = second compound 1 µM, first compound 3.16 µM
[24] = second compound 1 µM, first compound 10 µM
[25] = second compound 3.16 µM, first compound 0.0316 µM
[26] = second compound 3.16 µM, first compound 0.1 µM
[27] = second compound 3.16 µM, first compound 0.316 µM
[28] = second compound 3.16 µM, first compound 1 µM
[29] = second compound 3.16 µM, first compound 3.16 µM
[30] = second compound 3.16 µM, first compound 10 µM
[31] = second compound 10 µM, first compound 0.0316 µM
[32] = second compound 10 µM, first compound 0.1 µM
[33] = second compound 10 µM, first compound 0.316 µM
[34] = second compound 10 µM, first compound 1 µM
[35] = second compound 10 µM, first compound 3.16 µM
[36] = second compound 10 µM, first compound 10 µM
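Further: spheroids exposed to the agents for 7 days.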
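Wherever viability, T/C is given: 100% = DMSO vehicle control viability.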

## CC(C)(O)C1CCC(Nc2ccc3ncc(-c4cccc(C(F)(F)F)c4)n3n2)CC1 (stereo not given) + Cc1[nH]c2ccc(F)cc2c1-c1nc2c3cccnc3c3ncccc3c2[nH]1
Second compound 0.0316 µM
  IC50: > 10 µM
Second compound 0.1 µM
  IC50: > 10 µM
Second compound 0.316 µM
  IC50: > 10 µM
Second compound 1 µM
  IC50: > 10 µM
Second compound 3.16 µM
  IC50: > 10 µM
Second compound 10 µM
  IC50: > 10 µM
[1]
  viability, T/C: 114%
[2]
  viability, T/C: 107%
[3]
  viability, T/C: 103%
[4]
  viability, T/C: 108%
[5]
  viability, T/C: 107%
[6]
  viability, T/C: 114%
[7]
  viability, T/C: 120%
[8]
  viability, T/C: 103%
[9]
  viability, T/C: 97.5%
[10]
  viability, T/C: 103%
[11]
  viability, T/C: 99.3%
[12]
  viability, T/C: 105%
[13]
  viability, T/C: 101%
[14]
  viability, T/C: 105%
[15]
  viability, T/C: 108%
[16]
  viability, T/C: 101%
[17]
  viability, T/C: 104%
[18]
  viability, T/C: 99.4%
[19]
  viability, T/C: 115%
[20]
  viability, T/C: 99%
[21]
  viability, T/C: 101%
[22]
  viability, T/C: 101%
[23]
  viability, T/C: 97.7%
[24]
  viability, T/C: 90.5%
[25]
  viability, T/C: 94.9%
[26]
  viability, T/C: 97.2%
[27]
  viability, T/C: 93.5%
[28]
  viability, T/C: 90.7%
[29]
  viability, T/C: 104%
[30]
  viability, T/C: 96.9%
[31]
  viability, T/C: 98.1%
[32]
  viability, T/C: 80.3%
[33]
  viability, T/C: 88.9%
[34]
  viability, T/C: 97.4%
[35]
  viability, T/C: 78.3%
[36]
  viability, T/C: 79.6%

## CC1COCCN1c1cc(-c2ccnn2C)c2ccnc(-c3ccn[nH]3)c2n1 (stereo not given) + Cc1cnc(CNC(=O)c2c(=O)c3ccc(N4CCCN(C)CC4)nc3n3c2sc2ccccc23)cn1
Second compound 0.0316 µM
  IC50: 0.147 µM
Second compound 0.1 µM
  IC50: 0.157 µM
Second compound 0.316 µM
  IC50: < 0.0316 µM
Second compound 1 µM
  IC50: > 10 µM
Second compound 3.16 µM
  IC50: > 10 µM
Second compound 10 µM
  IC50: < 0.0316 µM
[1]
  viability, T/C: 80.7%
[2]
  viability, T/C: 54%
[3]
  viability, T/C: 37.4%
[4]
  viability, T/C: 33.7%
[5]
  viability, T/C: 43.5%
[6]
  viability, T/C: 53.1%
[7]
  viability, T/C: 65.9%
[8]
  viability, T/C: 53.8%
[9]
  viability, T/C: 48.4%
[10]
  viability, T/C: 29.8%
[11]
  viability, T/C: 51.7%
[12]
  viability, T/C: 55.2%
[13]
  viability, T/C: 52.7%
[14]
  viability, T/C: 39%
[15]
  viability, T/C: 34.8%
[16]
  viability, T/C: 37.6%
[17]
  viability, T/C: 48.5%
[18]
  viability, T/C: 45%
[19]
  viability, T/C: 55.3%
[20]
  viability, T/C: 58.5%
[21]
  viability, T/C: 67.5%
[22]
  viability, T/C: 57.5%
[23]
  viability, T/C: 58.2%
[24]
  viability, T/C: 51%
[25]
  viability, T/C: 63.1%
[26]
  viability, T/C: 63.7%
[27]
  viability, T/C: 48.5%
[28]
  viability, T/C: 67.5%
[29]
  viability, T/C: 57.8%
[30]
  viability, T/C: 48%
[31]
  viability, T/C: 43.1%
[32]
  viability, T/C: 52%
[33]
  viability, T/C: 66.7%
[34]
  viability, T/C: 54.9%
[35]
  viability, T/C: 39.8%
[36]
  viability, T/C: 63.3%

## CC1COCCN1c1cc(C2(S(C)(=N)=O)CC2)nc(-c2ccnc3[nH]ccc23)n1 (stereo not given) + Cc1[nH]c2ccc(F)cc2c1-c1nc2c3cccnc3c3ncccc3c2[nH]1
Second compound 0.0316 µM
  IC50: 9.53 µM
Second compound 0.1 µM
  IC50: 6.25 µM
Second compound 0.316 µM
  IC50: > 10 µM
Second compound 1 µM
  IC50: > 10 µM
Second compound 3.16 µM
  IC50: 6.51 µM
Second compound 10 µM
  IC50: > 10 µM
[1]
  viability, T/C: 96.7%
[2]
  viability, T/C: 83.8%
[3]
  viability, T/C: 76.3%
[4]
  viability, T/C: 71.9%
[5]
  viability, T/C: 62.9%
[6]
  viability, T/C: 47.5%
[7]
  viability, T/C: 95.8%
[8]
  viability, T/C: 86.2%
[9]
  viability, T/C: 82.4%
[10]
  viability, T/C: 77.6%
[11]
  viability, T/C: 70.3%
[12]
  viability, T/C: 37.4%
[13]
  viability, T/C: 107%
[14]
  viability, T/C: 73.8%
[15]
  viability, T/C: 69.7%
[16]
  viability, T/C: 70%
[17]
  viability, T/C: 62.3%
[18]
  viability, T/C: 49.3%
[19]
  viability, T/C: 80.3%
[20]
  viability, T/C: 46.2%
[21]
  viability, T/C: 76.8%
[22]
  viability, T/C: 94%
[23]
  viability, T/C: 72.5%
[24]
  viability, T/C: 60.6%
[25]
  viability, T/C: 59.7%
[26]
  viability, T/C: 79.8%
[27]
  viability, T/C: 66.1%
[28]
  viability, T/C: 55.8%
[29]
  viability, T/C: 71%
[30]
  viability, T/C: 40.4%
[31]
  viability, T/C: 63.7%
[32]
  viability, T/C: 76.2%
[33]
  viability, T/C: 72.2%
[34]
  viability, T/C: 71.2%
[35]
  viability, T/C: 64.5%
[36]
  viability, T/C: 74.8%

## C=CC(=O)N1CCN(c2nc(=O)n(-c3c(C)ccnc3C(C)C)c3nc(-c4c(O)cccc4F)c(F)cc23)C(C)C1 (stereo not given) + CN(C)c1ccc(Nc2c3ccc(NC(=O)CCN4CCCC4)cc3nc3cc(NC(=O)CCN4CCCC4)ccc23)cc1
Second compound 0.0316 µM
  IC50: > 10 µM
Second compound 0.1 µM
  IC50: > 10 µM
Second compound 0.316 µM
  IC50: > 10 µM
Second compound 1 µM
  IC50: > 10 µM
Second compound 3.16 µM
  IC50: > 10 µM
Second compound 10 µM
  IC50: > 10 µM
[1]
  viability, T/C: 103%
[2]
  viability, T/C: 99.2%
[3]
  viability, T/C: 86.6%
[4]
  viability, T/C: 68.8%
[5]
  viability, T/C: 70.6%
[6]
  viability, T/C: 85.6%
[7]
  viability, T/C: 87.7%
[8]
  viability, T/C: 88.4%
[9]
  viability, T/C: 93.5%
[10]
  viability, T/C: 82.1%
[11]
  viability, T/C: 95.7%
[12]
  viability, T/C: 89.8%
[13]
  viability, T/C: 90.7%
[14]
  viability, T/C: 98.5%
[15]
  viability, T/C: 88.7%
[16]
  viability, T/C: 77.5%
[17]
  viability, T/C: 92.4%
[18]
  viability, T/C: 74.7%
[19]
  viability, T/C: 89.5%
[20]
  viability, T/C: 93.1%
[21]
  viability, T/C: 97.7%
[22]
  viability, T/C: 67.9%
[23]
  viability, T/C: 104%
[24]
  viability, T/C: 96.2%
[25]
  viability, T/C: 69.1%
[26]
  viability, T/C: 81.1%
[27]
  viability, T/C: 91.2%
[28]
  viability, T/C: 83.5%
[29]
  viability, T/C: 97.6%
[30]
  viability, T/C: 81.2%
[31]
  viability, T/C: 77%
[32]
  viability, T/C: 85.7%
[33]
  viability, T/C: 91.2%
[34]
  viability, T/C: 98.4%
[35]
  viability, T/C: 91.2%
[36]
  viability, T/C: 93.9%

## CC(C)(O)C1CCC(Nc2ccc3ncc(-c4cccc(C(F)(F)F)c4)n3n2)CC1 (stereo not given) + Cc1cnc(CNC(=O)c2c(=O)c3ccc(N4CCCN(C)CC4)nc3n3c2sc2ccccc23)cn1
Second compound 0.0316 µM
  IC50: 1.13 µM
Second compound 0.1 µM
  IC50: 0.896 µM
Second compound 0.316 µM
  IC50: 1.38 µM
Second compound 1 µM
  IC50: 1.73 µM
Second compound 3.16 µM
  IC50: 1.5 µM
Second compound 10 µM
  IC50: 1.57 µM
[1]
  viability, T/C: 90.1%
[2]
  viability, T/C: 66.9%
[3]
  viability, T/C: 88.4%
[4]
  viability, T/C: 52.1%
[5]
  viability, T/C: 32.2%
[6]
  viability, T/C: 30.2%
[7]
  viability, T/C: 87.6%
[8]
  viability, T/C: 80.2%
[9]
  viability, T/C: 73.4%
[10]
  viability, T/C: 46.9%
[11]
  viability, T/C: 36.7%
[12]
  viability, T/C: 33.7%
[13]
  viability, T/C: 98.1%
[14]
  viability, T/C: 81.1%
[15]
  viability, T/C: 80.5%
[16]
  viability, T/C: 57.2%
[17]
  viability, T/C: 31.7%
[18]
  viability, T/C: 36.5%
[19]
  viability, T/C: 69.9%
[20]
  viability, T/C: 101%
[21]
  viability, T/C: 91.4%
[22]
  viability, T/C: 64.5%
[23]
  viability, T/C: 35.4%
[24]
  viability, T/C: 27%
[25]
  viability, T/C: 92.5%
[26]
  viability, T/C: 84.4%
[27]
  viability, T/C: 96.3%
[28]
  viability, T/C: 65.4%
[29]
  viability, T/C: 20.1%
[30]
  viability, T/C: 23.2%
[31]
  viability, T/C: 76.2%
[32]
  viability, T/C: 108%
[33]
  viability, T/C: 91.5%
[34]
  viability, T/C: 69.4%
[35]
  viability, T/C: 19.1%
[36]
  viability, T/C: 21.2%
